Data taken from article PMC6128713 (Saudi Pharmaceutical Journal : SPJ, 2018).
Read-outs that look alike come from different tables or passages of the source. Each block holds one molecule with its values, some of them ahead of it.

Experiments:
[1] = test system: glutamate-induced 45Ca2+ uptake into synaptosomes of rat brain cortex; experiment: Effect on glutamate-induced 45Ca2+ uptake into synaptosomes of rat brain cortex; format: biochemical, Wistar rats; details: for Percentage 45Ca2+ of Control (Control – 100%): 200 μM glutamate, 5 min, 37 °C
[2] = format: physicochemical

- mole fraction solubility (x) ([2]; 1-octanol, 293.15 K): 0.71 x · 10^4
- A, parameter of the correlation equation lnx=A-B/T ([2]; 1-octanol, 293.15–313.15 K): 7.10 ± 0.15
- B, parameter of the correlation equation lnx=A-B/T ([2]; 1-octanol, 293.15–313.15 K): 4876 ± 47
- mole fraction solubility (x) ([2]; 1-octanol, 298.15 K): 0.93 x · 10^4
- ΔGsol0, standard molar dissolution Gibbs energy ([2]; 1-octanol, 298.15 K): 5.5 kcal/mol
- ΔHsol0, standard molar dissolution enthalpy ([2]; 1-octanol, 298.15 K): 9.68 kcal/mol
- ΔSsol0, standard molar dissolution entropy ([2]; 1-octanol, 298.15 K): 58.7 J/mol⋅K
- mole fraction solubility (x) ([2]; 1-octanol, 303.15 K): 1.22 x · 10^4
- mole fraction solubility (x) ([2]; 1-octanol, 308.15 K): 1.61 x · 10^4
- mole fraction solubility (x) ([2]; 1-octanol, 313.15 K): 2.05 x · 10^4
- mole fraction solubility (x) ([2]; Buffer pH 7.4, 293.15 K): 5.57 x · 10^6
- A, parameter of the correlation equation lnx=A-B/T ([2]; Buffer pH 7.4, 293.15–313.15 K): −2.82 ± 0.09
- B, parameter of the correlation equation lnx=A-B/T ([2]; Buffer pH 7.4, 293.15–313.15 K): 2719 ± 29
- mole fraction solubility (x) ([2]; Buffer pH 7.4, 298.15 K): 6.55 x · 10^6
- ΔGsol0, standard molar dissolution Gibbs energy ([2]; Buffer pH 7.4, 298.15 K): 7.07 kcal/mol
- ΔHsol0, standard molar dissolution enthalpy ([2]; Buffer pH 7.4, 298.15 K): 5.4 kcal/mol
- ΔSsol0, standard molar dissolution entropy ([2]; Buffer pH 7.4, 298.15 K): –23.4 J/mol⋅K
- mole fraction solubility (x) ([2]; Buffer pH 7.4, 303.15 K): 7.53 x · 10^6
- mole fraction solubility (x) ([2]; Buffer pH 7.4, 308.15 K): 8.77 x · 10^6
- mole fraction solubility (x) ([2]; Buffer pH 7.4, 313.15 K): 10.09 x · 10^6
- mole fraction solubility (x) ([2]; Hexane, 293.15 K): 3.30 x · 10^5
- A, parameter of the correlation equation lnx=A-B/T ([2]; Hexane, 293.15–313.15 K): −2.93 ± 0.14
- B, parameter of the correlation equation lnx=A-B/T ([2]; Hexane, 293.15–313.15 K): 2165 ± 43
- mole fraction solubility (x) ([2]; Hexane, 298.15 K): 3.71 x · 10^5
- ΔGsol0, standard molar dissolution Gibbs energy ([2]; Hexane, 298.15 K): 6.05 kcal/mol
- ΔHsol0, standard molar dissolution enthalpy ([2]; Hexane, 298.15 K): 4.3 kcal/mol
- ΔSsol0, standard molar dissolution entropy ([2]; Hexane, 298.15 K): -24.5 J/mol⋅K
- mole fraction solubility (x) ([2]; Hexane, 303.15 K): 4.18 x · 10^5
- mole fraction solubility (x) ([2]; Hexane, 308.15 K): 4.68 x · 10^5
- mole fraction solubility (x) ([2]; Hexane, 313.15 K): 5.31 x · 10^5
SMILES: COc1ccc2c(c1)c1c(n2CCc2n[nH]c(=S)n2C)CCN(C)C1 [III, 5-[2-(8-Methoxy-2-methyl-1,2,3,4-tetrahydropyrido[4,3-b]indol-5-yl)ethyl]-4-methyl-2,4-dihydro[1,2,4]triazole-3-thione]
- Percentage 45Ca2+ of Control (Control – 100%) ([1]; compound 0.01 μM): 86.7 ± 4.0%
- Percentage 45Ca2+ of Control (Control – 100%) ([1]; compound 0.1 μM): 57.5 ± 8.3%
- Percentage 45Ca2+ of Control (Control – 100%) ([1]; compound 0.5 μM): 83.0 ± 7.9%
- Percentage 45Ca2+ of Control (Control – 100%) ([1]; compound 1 μM): 83.4 ± 12.7%
- Percentage 45Ca2+ of Control (Control – 100%) ([1]; compound 5 μM): 86.6 ± 4.5%
- Percentage 45Ca2+ of Control (Control – 100%) ([1]; compound 10 μM): 85.8 ± 15.2%
- Percentage 45Ca2+ of Control (Control – 100%) ([1]; compound 50 μM): 93.1 ± 12.8%
- Percentage 45Ca2+ of Control (Control – 100%) ([1]; compound 100 μM): 96.1 ± 13.2%
- maximal effect on calcium ion uptake (inhibiting ability) ([1]; concentration of 0.1 μM): 42.5%
- inhibition of glutamate-induced calcium ion uptake ([1]; concentration of 1 μM): ~17%
- overall inhibiting activity on calcium ion uptake, in words ([1]; whole concentration range 0.01–100 μM): highest inhibiting activity within a wide concentration range (0.01–10 μM)

- mole fraction solubility (x) ([2]; 1-octanol, 293.15 K): 2.16 x · 10^4
- A, parameter of the correlation equation lnx=A-B/T ([2]; 1-octanol, 293.15–313.15 K): 5.83 ± 0.11
- B, parameter of the correlation equation lnx=A-B/T ([2]; 1-octanol, 293.15–313.15 K): 4179 ± 45
- mole fraction solubility (x) ([2]; 1-octanol, 298.15 K): 2.74 x · 10^4
- ΔGsol0, standard molar dissolution Gibbs energy ([2]; 1-octanol, 298.15 K): 4.85 kcal/mol
- ΔHsol0, standard molar dissolution enthalpy ([2]; 1-octanol, 298.15 K): 8.29 kcal/mol
- ΔSsol0, standard molar dissolution entropy ([2]; 1-octanol, 298.15 K): 69.9 J/mol⋅K
- mole fraction solubility (x) ([2]; 1-octanol, 303.15 K): 3.48 x · 10^4
- mole fraction solubility (x) ([2]; 1-octanol, 308.15 K): 4.28 x · 10^4
- mole fraction solubility (x) ([2]; 1-octanol, 313.15 K): 5.40 x · 10^4
- mole fraction solubility (x) ([2]; Buffer pH 7.4, 293.15 K): 1.69 x · 10^6
- A, parameter of the correlation equation lnx=A-B/T ([2]; Buffer pH 7.4, 293.15–313.15 K): −7.76 ± 0.04
- B, parameter of the correlation equation lnx=A-B/T ([2]; Buffer pH 7.4, 293.15–313.15 K): 1649 ± 12
- mole fraction solubility (x) ([2]; Buffer pH 7.4, 298.15 K): 1.86 x · 10^6
- ΔGsol0, standard molar dissolution Gibbs energy ([2]; Buffer pH 7.4, 298.15 K): 7.82 kcal/mol
- ΔHsol0, standard molar dissolution enthalpy ([2]; Buffer pH 7.4, 298.15 K): 3.27 kcal/mol
- ΔSsol0, standard molar dissolution entropy ([2]; Buffer pH 7.4, 298.15 K): -63.73 J/mol⋅K
- mole fraction solubility (x) ([2]; Buffer pH 7.4, 303.15 K): 2.04 x · 10^6
- mole fraction solubility (x) ([2]; Buffer pH 7.4, 308.15 K): 2.23 x · 10^6
- mole fraction solubility (x) ([2]; Buffer pH 7.4, 313.15 K): 2.42 x · 10^6
- mole fraction solubility (x) ([2]; Hexane, 293.15 K): 7.96 x · 10^6
- A, parameter of the correlation equation lnx=A-B/T ([2]; Hexane, 293.15–313.15 K): −1.25 ± 0.18
- B, parameter of the correlation equation lnx=A-B/T ([2]; Hexane, 293.15–313.15 K): 3073 ± 39
- mole fraction solubility (x) ([2]; Hexane, 298.15 K): 9.41 x · 10^6
- ΔGsol0, standard molar dissolution Gibbs energy ([2]; Hexane, 298.15 K): 6.84 kcal/mol
- ΔHsol0, standard molar dissolution enthalpy ([2]; Hexane, 298.15 K): 6.12 kcal/mol
- ΔSsol0, standard molar dissolution entropy ([2]; Hexane, 298.15 K): -6.7 J/mol⋅K
- mole fraction solubility (x) ([2]; Hexane, 303.15 K): 11.41 x · 10^6
- mole fraction solubility (x) ([2]; Hexane, 308.15 K): 13.26 x · 10^6
- mole fraction solubility (x) ([2]; Hexane, 313.15 K): 15.50 x · 10^6
- increase of solubility in hexane over buffer solution ([2]; standard temperature): 5 times
SMILES: CN1CCc2c(c3ccccc3n2CCc2n[nH]c(=S)n2C)C1 [Compound I, 4-Methyl-5-[2-(2-methyl-1,2,3,4-tetrahydropyrido[4,3-b]indol-5-yl)ethyl]-2,4-dihydro[1,2,4]triazole-3-thione]
- Percentage 45Ca2+ of Control (Control – 100%) ([1]; compound 0.1 μM): 90.5 ± 5.1%
- Percentage 45Ca2+ of Control (Control – 100%) ([1]; compound 0.5 μM): 94.8 ± 3.0%
- Percentage 45Ca2+ of Control (Control – 100%) ([1]; compound 1 μM): 94.5 ± 11.8%
- Percentage 45Ca2+ of Control (Control – 100%) ([1]; compound 5 μM): 80.0 ± 3.0%
- Percentage 45Ca2+ of Control (Control – 100%) ([1]; compound 10 μM): 69.9 ± 4.4%
- Percentage 45Ca2+ of Control (Control – 100%) ([1]; compound 50 μM): 90.0 ± 6.1%
- Percentage 45Ca2+ of Control (Control – 100%) ([1]; compound 100 μM): 104.2 ± 12.8%
- effect on glutamate-induced calcium ion uptake, in words ([1]; concentration of 0.1–1 μM): did not affect
- effect on glutamate-induced calcium ion uptake, in words ([1]; concentrations of 5–50 μM): inhibited calcium ion uptake
